In PMC7072329, “Discovery of Kynurenines Containing Oligopeptides as Potent Opioid Receptor Agonists” (Biomolecules, 2020):
Where “and” joins values, the source holds several entries; their conditions need not be identical. Equal entries are not always repeated. Where a SMILES comes first, the peptide text is derived from it. [ ]: non-standard residue; d: D form. Kyn = Nc1ccccc1C(=O)C[C@H](N)C(=O)O

Columns and labels:
G-protein = assay: functional [35S]GTPγS binding, rat brain membrane homogenates; assay type: biochemical
Experimental: Rats and guinea pigs were decapitated, and their brains were quickly removed. The brains were used for membrane preparation following the procedure reported by Benyhe for binding and [^35S]GTPγS binding experiments, in agreement with the protocol of Zádor et al..
Homogenization of brains was performed in 30 volumes (v/w) of ice-cold 50 mM Tris-HCl pH 7.4 buffer with a Teflon-glass Braun homogenizer at 1500 rpm. The centrifuge was settled at 18,000 rpm for 20 min at 4 °C, the resulting supernatant discarded, and the pellet taken up in the original volume of Tris-HCl buffer. Incubation of homogenate at 37 °C for 30 min was performed in a shaking water-bath. Five volumes of 50 mM Tris-HCl pH 7.4 buffer were used to suspend the final pellet at −80 °C. For the [^35S]GTPγS binding experiments, the brains were homogenized with a Dounce in 5 volumes (v/w) of ice-cold TEM (Tris-HCl, EGTA, MgCl2) at −80 °C. The protein content of the membrane preparation was determined by the method of Bradford, BSA being used as a standard.
The functional [^35S]GTPγS binding experiments were performed as previously described. Briefly the membrane homogenates were incubated at 30 °C for 60 min in Tris-EGTA buffer (pH 7.4) composed of 50 mM Tris-HCl, 1 mM EGTA, 3 mM MgCl2, 100 mM NaCl, containing 20 MBq/0.05 cm^3 [^35S]GTPγS (0.05 nM) and increasing concentrations (10^−10 to 10^−5 M) of ligands. The experiments were performed in the presence of excess GDP (30 μM) in a final volume of 1 mL. Total binding was measured in the absence of test compounds, non-specific binding was determined in the presence of 10 μM unlabeled GTPγS. The reaction was terminated by rapid filtration under vacuum and washed three times with 5 mL ice-cold 50 mM Tris-HCl (pH 7.4) buffer through Whatman GF/B glass fibers. The radioactivity of the filters was detected in an UltimaGold^TM MV aqueous scintillation cocktail with a Packard Tricarb 2300TR liquid scintillation counter.
Experimental data are presented as means ± S.E.M. Sigmoid dose-response curves were fitted with GraphPad Prism 5.0 (GraphPad Prism Software Inc., San Diego, CA, USA). An unpaired t-test with two-tailed p value was performed to determine the significance level. In the competition binding assays, the ‘One site competition’ fitting was used to establish the equilibrium binding affinity (Ki value).
[35S]GTPγS binding assay in rat brain membrane homogenates. Figure S2 represents the specific binding of [35S]GTPγS in percentage in presence of increasing concentrations (10-10 - 10^-5 M) of the indicated ligands. “Total” on the x-axis indicates the basal activity of the monitored G-protein, which is measured in the absence of the ligands and represents the total specific binding of [35S]GTPγS. The level of basal activity was defined as 100% and it is presented with a dotted line. Points represent means ± S.E.M. for at least three experiments […]
Figure S3. The effect of novel oligopeptides on G-protein activity in [35S]GTPγS binding assays in the absence or presence of the selective MOR antagonist cyprodime (Cyp) and the selective DOR antagonist naltrindole (NTI) in rat brain membrane homogenates (Figure A) and the selective KOR antagonist norbinaltorphine (nor-BNI) in guinea pig brain membrane homogenates (Figure B). The level of basal activity was defined as 100% and it is presented with a dotted line. Points represent means ± S.E.M. for at least three experiments performed

[1] = stability in human plasma; assay type: in vitro ADME; settings: 37 °C
Experimental: Five microliters of K6 (500 μg in 250 μL of water) were added to 45 μL of fresh human plasma, then incubated at 37 ± 1 °C. Prepared samples were removed at several designated time points and incubation was stopped by adding an equal volume of the sequencing mixture (5% aqueous ZnSO4 solution, MeOH, and ACN; 5:3:2), which precipitated proteins, to achieve a final concentration of 100 μg/mL. The mixture was vortexed and centrifuged at 12,000× g for 5 min, then 20 μL of clear supernatant was directly injected into the HPLC system (Waters model 600 solvent pump and 2996 photodiode array detector, with XBridge BEH 130 C18, 4.6 × 250 mm, 5 μm). The samples were tested in three independents experiments (n = 3) and reported values represent the mean ± standard error (SEM). Data were analysed using simple regression analysis (significant deviation from zero: F1,13 = 171.9, p < 0.0001; Y = −0.9705 × X + 95.98).
Five calibration standards were injected into the HPLC-UV/Vis system. HPLC analyses were performed on a Waters liquid chromatograph equipped with a model 600 solvent pump and a 2996 photodiode array detector, and the mobile phase was degassed directly on-line by using Degassex, mod. DG-4400 (Phenomenex, Torrance, CA, USA). Empower v2.0 Software (Waters Spa, Milford, MA, USA) was used for data acquisition and elaboration. A reversed-phase packing column (XBridge BEH 130 C18, 4.6 × 250 mm, 5 μm; Waters Spa, Milford, MA, USA) was employed for the separation and the column was held at room temperature (22 ± 1 °C). K6 remaining concentrations at different times are reported below. For quantitative analyses, selective detection was performed at 210 nm. Gradient elution mode was performed using a mobile phase containing a […] water-ACN ratio as starting conditions and gradient program as reported. […]
All the sample solutions were previously centrifuged and 20 µL of the supernatant was injected into the HPLC-UV/Vis system. Calibration curves from 2 to 10 μg/mL were calculated by analyzing five non-zero concentration standards prepared in freshly spiked plasma solution in triplicate and extracted. All quantitative analyses were performed at 210 nm. Calibration curves were linear with r2 values always greater than 0.988 (n = 3). In reported chromatographic conditions, the retention times for K6 was 16.45 minutes (± 0.4, n = 20), the substance identity was confirmed by LS-MS analysis.
Time ( minutes) K6 Concentration (µg/mL) K6% of degradation

With `C[C@@H](NC(=O)[C@@H](N)Cc1ccc(O)cc1)C(=O)NCC(=O)N[C@@H](Cc1ccccc1)C(=O)N[C@@H](CC(=O)c1ccccc1N)C(N)=O` [Peptide K6] (H-Y[dA]GF[Kyn]-NH2) the “Potency Log EC50 ± S.E.M.” value (G-protein; dose-response curves) was −5.984 ± 0.054, the “Maximal Stimulation (Efficacy) Emax ± S.E.M.” value (G-protein; dose-response curves, basal = 100%) was 209.7 ± 3.4% and the “Emax + S.E.M., Ligand” value (G-protein; ligand alone, bar graphs Figure S3) was 211% and 211.7 ± 3.1%. For the same molecule, the K6% of degradation ([1]; 0 minutes) was 0%, the metabolised at 5 min, 200 μg/mL ([1]; fresh human plasma, 5 minutes, read-out: K6% of degradation) was 7% and the metabolised at 10 min, 200 μg/mL ([1]; fresh human plasma, 10 minutes, read-out: K6% of degradation) was 15%. The metabolised at 0.5 h, 200 μg/mL ([1]; fresh human plasma, 30 minutes, read-out: K6% of degradation) was 36%, the metabolised at 1 h, 200 μg/mL ([1]; fresh human plasma, 60 minutes, read-out: K6% of degradation) was 56% and the half-life at 200 μg/mL ([1]; plasma (fresh), linear regression, read-out: t1/2 in human plasma) was 47 min.
